“Also recorded” adds a separate entry of the source.
Key:
[1] = target: T1, unmodified bovine serum albumin (BSA) (Bos taurus, UniProt P02769); test: T1 relaxivity/relaxation after incubation with unmodified BSA; assay type: binding
T1 construct: A BSA protein standard without the addition of glutaraldehyde was run in parallel as a control
Procedure: (§1) A solution of glutaraldehyde (100 μL, 25% wt solution in water) was added to a solution of bovine serum albumin (100 mg) dissolved in phosphate buffered saline (2 mL, pH 7.4, 0.25 mM) and left to stir at room temperature for 5 min. To this solution was added sodium cyanoborohydride (25 mg) and the solution stirred overnight at 4° C. A BSA protein standard without the addition of glutaraldehyde was run in parallel as a control. Both protein mixtures were purified on PD-10 Sephadex G25 desalting columns (GE Healthcare), eluted with water, to remove excess glutaraldehyde. Protein concentrations were assessed using the ‘BCA Protein Assay Kit’ (Thermo Scientific). […] The aldehyde concentration of each protein was estimated using a standard DNPH literature protocol.
(§2) Aliquots of BSA-ALD (3 mg, 150 μL) or BSA (3mg, 163 μL) were treated for 24 h at 37° C. with either Compound 1 or Compound 2 at a range of concentrations (0.1-1.0 mM, concentrations equivalent to [Gd]:[aldehyde] ratio of 1:1, 2:1, 3:1, 4:1 and 5:1) with a total volume of 300 μl maintained for all samples. After 24 h longitudinal (T1) relaxation measurements were recorded using a Bruker mq20 Minispec at 0.47 T and 37° C. […] Relaxivity (r1) was determined from the slope of a plot of 1/T1 vs [Gd] for 5 concentrations of Gd(III). […]

[2] = target: T1, unmodified bovine serum albumin (BSA); test: In vitro binding assay: Gd bound to protein after ultrafiltration (ICP); settings: protein fraction after separation from free solution
[3] = system: liver fibrosis (CCl4-treated mice); test: MR liver imaging in mice after 6 or 12 weeks of CCl4 treatment, or 6 weeks plus recovery; assay type: in vivo; settings: for ΔCNR (liver:muscle contrast-to-noise ratio): 15-minute post injection; for liver signal enhancement post vs pre injection (in words): 15 min post injection
Procedure: Strain A/J male mice (Jackson Laboratories, Bar Harbor, Me.) were administered 0.1 ml of a 40% solution of CCl4 (Sigma, St. Louis, Mo.) in olive oil by oral gavage, three times a week for either 6 (n=14) or 12 weeks (n=10), to induce fibrosis at different stages. Controls received only pure olive oil (n=12).
Animals were imaged prior to and immediately following injection of the imaging probe. After imaging, the animals were sacrificed and the liver was removed for histopathological analyses.
Animals were anesthetized with isoflurane (1-2%) and placed in a specially designed cradle with body temperature maintained at 37° C. The tail vein was cannulated for intravenous (iv) delivery of the contrast agent while the animal was positioned in the scanner. Imaging was performed at 4.7T using a small bore animal scanner (Bruker Biospec) with a custom-built volume coil. The mouse was imaged prior to and following a bolus iv injection of Compound 1 (100 μmol/kg). The image sequence was a three dimensional fast low angle shot (3D FLASH) acquisition with repetition time (TR=15.3 ms), echo time (TE=1.54 ms), flip angle=15°, field of view 48×24×24 mm and matrix size 192×96×96 for a resolution of 250 μm isotropic and […] used 4 averages.
Image analysis was performed using the Osirix software. A region of interest (ROI) was manually traced encompassing the liver parenchyma while avoiding major blood vessels. A second ROI was placed on the dorsal muscle visible in the same image slice to quantify the signal intensity in the muscle for comparison. Seven ROIs were placed in the field of view without any tissue (air) to measure the noise in the image. More than 20 axial slices per mouse across the entire liver was analyzed in this fashion. The same analysis was performed on the pre-injection and 15-minute post injection images.
To quantify signal enhancement in the liver, contrast to noise ratio (CNR) was calculated using equation 1 below. SI=signal intensity, SD=standard deviation. An average of all image slices was calculated for the pre-injection images (CNRpre) and for the post-injection images (CNRpos). The liver enhancement for each mouse was expressed as ΔCNR, the difference between the pre-injection CNR and post-injection CNR (equation 2).
(§3) CNR=(SIliver−SImuscle)/SDair (1)
Differences among groups were tested with repeated measures ANOVA, followed by Student-Newman-Keuls post hoc test with P<0.05 considered as significant.
Strain A/J male mice (Jackson Laboratories, Bar Harbor, Me.) were administered 0.1 ml of a 40% solution of CCl4 (Sigma, St. Louis, Mo.) in olive oil by oral gavage, three times a week for 6 weeks and then allowed to recover for an additional 6 weeks (n=7). Animals were imaged prior to and immediately following injection of the imaging probe using the same protocol as in the previous example.
We compared Compound 2 to Compound 1 in terms of their ability to image fibrosis. Compound 2 has a very similar structure to Compound 1 but the hydrazide functional group has been dimethylated. The resulting dimethylhydrazide in Compound 2 is incapable of undergoing irreversible reaction with aldehyde moieties. Using the same animal model and imaging paradigm as described in the previous Example, mice that had been treated with CCl4 for 12 weeks or mice that received vehicle for 12 weeks were imaged.

[4] = target: T2, modified bovine serum albumin (BSA-ALD) (Bos taurus, UniProt P02769); test: In vitro binding assay: Gd bound to protein after ultrafiltration (ICP); settings: protein fraction after separation from free solution
T2 construct: A solution of glutaraldehyde (100 μL, 25% wt solution in water) was added to a solution of bovine serum albumin
T2 sequence (P02769 25-607): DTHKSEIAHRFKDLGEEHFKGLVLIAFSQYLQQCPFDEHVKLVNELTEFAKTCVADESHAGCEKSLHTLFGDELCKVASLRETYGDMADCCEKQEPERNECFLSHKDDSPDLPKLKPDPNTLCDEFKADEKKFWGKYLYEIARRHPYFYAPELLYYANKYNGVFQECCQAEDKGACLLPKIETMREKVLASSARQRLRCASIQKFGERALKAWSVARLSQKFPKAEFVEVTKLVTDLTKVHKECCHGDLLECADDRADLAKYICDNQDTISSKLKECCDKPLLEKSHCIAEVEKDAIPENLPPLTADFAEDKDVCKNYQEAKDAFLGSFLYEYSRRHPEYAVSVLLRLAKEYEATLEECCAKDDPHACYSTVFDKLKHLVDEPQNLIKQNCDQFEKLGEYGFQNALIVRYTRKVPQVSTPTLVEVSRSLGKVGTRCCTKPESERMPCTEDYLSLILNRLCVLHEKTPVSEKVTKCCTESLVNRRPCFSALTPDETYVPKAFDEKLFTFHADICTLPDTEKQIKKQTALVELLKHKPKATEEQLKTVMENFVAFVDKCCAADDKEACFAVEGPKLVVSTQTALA

[5] = target: T2, modified bovine serum albumin (BSA-ALD); test: T1 relaxivity/relaxation after incubation with aldehyde-modified BSA; assay type: binding
Procedure: as §1, §2

[6] = T1 relaxivity of probe in solution (water) without protein; assay type: physicochemical; settings: no protein, 310K, pH 7, 0.47 T
Procedure: Aliquots of BSA-ALD (3 mg, 150 μL) or BSA (3mg, 163 μL) were treated for 24 h at 37° C. with either Compound 1 or Compound 2 at a range of concentrations (0.1-1.0 mM, concentrations equivalent to [Gd]:[aldehyde] ratio of 1:1, 2:1, 3:1, 4:1 and 5:1) with a total volume of 300 μl maintained for all samples. After 24 h longitudinal (T1) relaxation measurements were recorded using a Bruker mq20 Minispec at 0.47 T and 37° C. Longitudinal (T1) relaxation was acquired via an inversion recovery experiment on 10 inversions of duration ranging between 0.05×T1 and 10×T1. Relaxivity (r1) was determined from the slope of a plot of 1/T1 vs [Gd] for 5 concentrations of Gd(III).
Solutions of Compound 1 and Compound 2 (concentration range: 0.1 mM-1.0 mM, in water) were run in parallel without protein as standard controls.

[7] = system: fibrotic liver (CCl4 mice); test: MR liver imaging in CCl4 mouse model of liver fibrosis (18 weeks); assay type: in vivo; settings: fibrotic (CCl4-treated) mouse, pre vs 30-minute post administration
Procedure: Liver Fibrosis: Strain A/J male mice (Jackson Laboratories, Bar Harbor, Me.) were administered 0.1 mL of a 40% solution of CCl4 (Sigma, St. Louis, Mo.) in olive oil by oral gavage three times a week for 18 weeks to induce fibrosis. Controls received only pure olive oil. Animals were imaged one week after the last injection to avoid acute effects of CCl4.
Mice were imaged with T1-weighted imaging before and after bolus (tail vein) injection of probe (Compound 1 or Compound 2) using a 4.7T scanner. Image visualization and quantification was performed using the DICOM viewer Osirix. A region of interest (ROI) was placed over the entire liver section while avoiding major blood vessels. Axial slices that cover the entire liver is analyzed (>10 slices/mouse). The signal intensity of the muscle within each slice was also quantified by a separate ROI. To estimate noise, an ROI of the air outside the animal was measured and the standard deviation of this measurement was taken. The same analysis was performed on the pre and 30-min post injection images (3D FLASH sequence).
Contrast to noise ratio (CNR) is calculated using equation (1). SI=signal intensity, SD=standard deviation, and delta CNR is the absolute difference between the pre- and post- images (2).
as §3
Delta CNR={CNRpost−CNRpre} (2)

CN(C)NC(=O)CC[C@H](C(=O)O)N1CCN(CC(=O)[O-])CCN(CC(=O)[O-])CCN(CC(=O)[O-])CC1.[Gd+3] [Compound 2, (R)-2,2′,2″-(10-(1-carboxy-4-(2,2-dimethylhydrazinyl)-4-oxobutyl)-1,4,7,10-tetraazacyclododecane-1,4,7-triyl)triacetic acid Gadolinium complex]
change in T1 relaxation time compared to standards ([1]; fractions after separation, BSA (FIG. 5A)): did not differ significantly
T1 relaxivity with BSA ([1]; incubated 24 h at 37° C. with BSA, 310K, pH 7, 0.47 T): 4.20 mM⁻¹ s⁻¹
Gd bound to protein [2]: No statistically significant amount
increase in ΔCNR, 12-week CCl4-treated vs vehicle ([3]; 12-week CCl4-treated animals vs vehicle): no difference
ΔCNR (liver:muscle contrast-to-noise ratio) ([3]; 12-week CCl4-treated mice): 0.5±0.5
liver signal enhancement post vs pre injection (in words) ([3]; 12-week CCl4-treated mice): slight enhancement
ΔCNR (liver:muscle contrast-to-noise ratio) ([3]; vehicle (olive oil) treated control mice, probe injected iv): 0.6±0.9
liver signal enhancement post vs pre injection (in words) ([3]; vehicle treated mice): slight enhancement
Gd bound to protein [4]: No statistically significant amount
T1 relaxivity with BSA-ALD ([5]; incubated 24 h at 37° C. with BSA-ALD, 310K, pH 7, 0.47 T): 4.22 mM⁻¹ s⁻¹
change in T1 relaxation time of protein fraction compared to solution controls ([5]; protein fraction after separation, BSA-ALD (FIG. 5A)): did not differ significantly
T1 relaxivity, standard solution measurement [6]: 4.09 mM⁻¹ s⁻¹
MR signal enhancement of liver [7]: very little enhancement; also recorded: little MR signal enhancement

Reference: US20170050989A1, “Molecular Imaging Probes” (THE GENERAL HOSPITAL CORPORATION, priority 2013, published 2017)
